Assay results reported in PubChem BioAssay AID602168 (The Scripps Research Institute Molecular Screening Center, 2012).
pIC50: −log10 of the molar value. Activity calls are given as the source filed them. How the calls were made is not given here.

biological target: Nuclear receptor coactivator 1 (Homo sapiens) (UniProt Q15788); assay: SRC1 coactivator transcriptional activity inhibitors, dose response, counter-screen for SRC3 inhibitor project, cell-based, luminescence (AID 602168); settings: Cell-based SRC1 luciferase reporter
Sequence (Q15788 whole entry, looked up): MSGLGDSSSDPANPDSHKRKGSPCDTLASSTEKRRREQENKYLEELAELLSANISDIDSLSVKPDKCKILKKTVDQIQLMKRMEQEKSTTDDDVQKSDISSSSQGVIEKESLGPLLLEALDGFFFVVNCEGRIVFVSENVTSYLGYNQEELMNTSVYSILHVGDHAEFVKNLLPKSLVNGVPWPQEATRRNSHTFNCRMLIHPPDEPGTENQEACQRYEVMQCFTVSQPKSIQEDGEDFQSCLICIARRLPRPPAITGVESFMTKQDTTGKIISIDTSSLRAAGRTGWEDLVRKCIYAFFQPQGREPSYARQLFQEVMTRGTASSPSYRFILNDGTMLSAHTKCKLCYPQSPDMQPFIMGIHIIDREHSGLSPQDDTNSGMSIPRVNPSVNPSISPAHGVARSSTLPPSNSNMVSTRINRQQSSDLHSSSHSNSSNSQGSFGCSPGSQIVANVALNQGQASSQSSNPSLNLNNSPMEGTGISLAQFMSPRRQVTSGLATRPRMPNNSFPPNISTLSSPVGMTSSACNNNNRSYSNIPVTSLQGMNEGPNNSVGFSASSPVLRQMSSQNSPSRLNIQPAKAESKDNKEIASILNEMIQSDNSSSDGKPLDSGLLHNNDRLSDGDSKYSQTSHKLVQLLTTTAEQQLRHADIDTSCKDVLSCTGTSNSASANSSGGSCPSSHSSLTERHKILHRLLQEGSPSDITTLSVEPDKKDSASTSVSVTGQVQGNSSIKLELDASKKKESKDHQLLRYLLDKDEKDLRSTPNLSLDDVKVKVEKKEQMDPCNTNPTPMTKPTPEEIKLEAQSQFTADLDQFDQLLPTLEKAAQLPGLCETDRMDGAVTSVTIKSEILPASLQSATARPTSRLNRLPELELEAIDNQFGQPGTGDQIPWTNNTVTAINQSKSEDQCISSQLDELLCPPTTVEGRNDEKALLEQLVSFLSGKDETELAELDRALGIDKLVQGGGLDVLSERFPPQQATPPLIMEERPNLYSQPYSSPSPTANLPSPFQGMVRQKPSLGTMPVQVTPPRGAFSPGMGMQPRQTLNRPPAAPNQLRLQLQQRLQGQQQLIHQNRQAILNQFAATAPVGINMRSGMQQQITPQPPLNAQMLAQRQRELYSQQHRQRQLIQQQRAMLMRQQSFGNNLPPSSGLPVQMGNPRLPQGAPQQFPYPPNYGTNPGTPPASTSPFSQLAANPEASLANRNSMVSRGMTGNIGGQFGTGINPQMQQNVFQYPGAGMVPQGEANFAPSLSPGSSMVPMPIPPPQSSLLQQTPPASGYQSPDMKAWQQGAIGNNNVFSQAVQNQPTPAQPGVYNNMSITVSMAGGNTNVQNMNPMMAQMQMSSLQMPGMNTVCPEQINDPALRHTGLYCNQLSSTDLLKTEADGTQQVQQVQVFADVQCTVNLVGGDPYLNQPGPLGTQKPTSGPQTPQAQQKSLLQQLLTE

Row | pIC50 | IC50 | SMILES
1 | 5.48 |  | NC(=O)c1sc2nc3c(c(-c4ccco4)c2c1N)CCC3
2 |  | inactive | CC(=O)c1cccc(NC(=O)Nc2ccc3c(c2)N(C)C(=O)CS3)c1
3 | 5.37 |  | CCOc1ccc(CC(=O)Nc2ccc(NC(=O)c3ccco3)cc2)cc1OCC
4 |  | > 35.9 µM (inactive) | Cn1cnc([N+](=O)[O-])c1Sc1nc(N)nc2c1ncn2C1OC(CO)C(O)C1O (configuration not stated)
5 |  | > 35.8 µM (inactive) | CC(C)N(c1ccccc1)c1ccc(NC(=O)CCl)cc1
6 | 5.08 |  | Cc1nc(N2CCC(C(N)=O)CC2)c2c(-c3cccs3)csc2n1
7 |  | > 35.9 µM (inactive) | Nc1ccc(-c2cc3ccccc3oc2=O)cc1
8 |  | inactive | CN(C)c1ccc(/C=C/c2ccc3ccccc3n2)cc1
9 |  | > 35.9 µM (inactive) | Cc1nc2c(-c3ccc(Cl)cc3)cnn2c(N)c1-c1ccc(F)cc1
10 |  | inactive | CCn1c2ccccc2c2cnc(N=CN(C)C)c(C#N)c21
11 |  | > 35.8 µM (inactive) | NC(=S)N/N=C1\CCSc2ccc(Cl)cc21
12 |  | > 35.9 µM (inactive) | O=C(CC(Nc1ccc(Cl)cc1Cl)C(=O)O)c1ccccc1 (configuration not stated)
